# Earlier results, collected in US4239780A, “Phospholipase A2 inhibition” (The Upjohn Company, priority 1979, dated 1980).
# Test system: phospholipase A2 from venom of Russel Viper
# Settings: enzyme from Russel Viper venom; cited from earlier work
compound,measurement,value
"COc1ccc2c(c1)c(CC(=O)O)c(C)n2C(=O)c1ccc(Cl)cc1 [indomethacin, Indomethacin]",inhibition of phospholipase A2,inactive
